According to patent US9820963B2, “Composition containing lignan compound as active ingredient for preventing or treating cancer” (KOREA RESEARCH INSTITUTE OF BIOSCIENCE AND BIOTECHNOLOGY, priority 2013, dated 2017):
“Also recorded” adds a separate entry of the source.

Assays:
[1] = system: ERKs/RSKs signaling pathway; test: Western blot of EGF-stimulated cells, ERKs/RSKs signaling pathway; type: cell-based, mouse; conditions: for ERK1/2 phosphorylation at Thr202/Tyr204: JB6 Cl41 cells
Procedure: The cultured JB6 Cl41 cells (1×10^6 cells) were aliquoted into a cell culture dish with a diameter of 100 mm and they were cultured overnight. Then, the cells were left for 24 hours in 0.1% FBS-MEM and pretreated with magnolin at concentrations of 15 μM, 30 μM, and 60 μM for 30 minutes, respectively, and after 30 minutes, co-treated with EGF and magnolin.
The proteins were extracted from the cultured JB6 Cl41 cells and the samples containing the proteins were analyzed by 8% to 10% SDS-PAGE, and transferred onto polyvinylidene difluoride (PVDF) membranes. The membranes were cultured in a blocking buffer containing 5% skim milk. Then, Western blot was performed using specific antibodies for phospho-MEK (MAPK (mitogen-activated protein kinase)/ERK kinase), total-MEK, phospho-ERK, total-ERK, phospho-RSK, total-RSK, phospho-Akt, total-Akt, phospho-p38 kinase, total-p38 kinase, phospho-JNK (c-Jun N-terminal kinase), and total-JNK (all the antibodies obtained from Cell Signaling Technology, Beverly, Mass., USA). In particular, β-actin (Santa Cruz, Calif., USA) was used as a control and the Western blot was visualized with an enhanced chemiluminescence detection system (Amersham Biosciences, Piscataway, N.J., USA) using the Chemidoc XRS imager system (Bio-Rad Laboratories, Hercules, Calif., USA).
To confirm whether the action of magnolin, which interrupts phosphorylation at Thr359/Ser363 of RSKs, was selective in MEKs/ERKs signaling pathways or not, the action was compared by conducting an experiment on the phosphorylation of ERKs and RSKs by treatment with PD98059, an MEK1/2 inhibitor. As a result, it was confirmed that PD98059 interrupts ERK1/2 phosphorylation at Thr202/Tyr204.

[2] = system: NIH3T3 cells expressing Ras^G12V; test: Cell proliferation and anchorage-independent colony growth of NIH3T3 cells; type: cell-based
Text: In order to confirm the experimental results more precisely, NIH3T3 cells stably expressing mock or Ras^G12V were used to perform an additional experiment in the same manner as described above.

[3] = system: Mouse skin epidermal JB6 Cl41 cells; test: MTS assay, inhibitory effect of magnolin on cell proliferation; type: cell-based; conditions: up to 96 hours, read-out: inhibition of cell proliferation compared with DMSO control
Procedure: Mouse skin epidermal JB6 Cl41 cells were cultured in Dulbeco's Modified Eagle's Medium (DMEM) containing 10% FBS at 37° C. in a 5% CO2 bioreactor. The cells were subcultured at 80% to 90% confluence and the medium was changed every 2 to 3 days.
The cultured JB6 Cl41 cells (1×10^3 cells) were aliquoted into 96-well plates containing 5% FBS-MEM and cultured for 2 hours at 37° C. in a 5% CO2 bioreactor. Then, each well was added with 20 μL of an aqueous solution of the MTS-based Cell Titer 96, and then, further cultured for 1 hour at 37° C. in a 5% CO2 bioreactor. 25 μL of 10% sodium dodeceyl sulfate (SDS) solution was added into each of the wells to stop the reaction. The absorbance at 492 nm was measured to measure the growth of the cells at 0 hour.
While measuring the absorbance at 0 hour, the cells were simultaneously treated with the magnolin samples to final concentrations of 15 μM, 30 μM, and 60 μM, respectively, prepared in Example 5. The cells were cultured for 96 hours while measuring the absorbance at 24 hour intervals. In the experiment, the cell treated with DMSO alone was set as a control.

[4] = system: A549 human lung cancer cells harboring Ras^G12V; test: Cell proliferation of lung cancer cells; type: cell-based; conditions: 15, 30, 60 μM, 96 hours
Procedure: H226 human lung cancer cells (2×10^3 cells) harboring Ras-wt and A549 human lung cancer cells (2×10^3 cells) harboring Ras^G12V, mutant activating factor, were aliquoted into 96-well plates, respectively, and treated with magnolin at concentrations of 15 μM, 30 μM, and 60 μM. The cells were cultured for 96 hours at 24 hour intervals and the cell proliferation was measured.

ERK2 [5] = biological target: T1, ERK2 (Homo sapiens, UniProt P28482); test: Magnolin competition analysis using ATP-agarose beads; type: binding; conditions: increasing magnolin
Procedure: Then, to confirm whether magnolin was competitive with ATP or not, a magnolin competition analysis was performed using APT-agarose beads. As the result of the experiment, it was confirmed that an increase in magnolin decreased ERK2 that bind to ATP-agarose beads (FIG. 13E).

JB6 Cl41 cells [6] = test: Cell cycle distribution by PI flow cytometry, normal culture conditions; type: cell-based, mouse; conditions: for distribution in G1/G0 phase: 12 hours (control about 42%)
Procedure: To observe the cell cycle of the cells under normal cell culture conditions, JB6 Cl41 cells were cultured in a complete cell culture medium for 12 hours and treated with magnolin at final concentrations of 30 μM and 60 μM, respectively. After 12 hours, the cells were treated with trypsin, fixed, and treated with 20 μg/mL of PI at 4° C. for 15 minutes. Then, the cell cycle distribution was analyzed using the flow cytometry (BD FACS Calibur™ Flow cytometery, Franklin Lakes, N.J., USA).

JB6 Cl41 cells [7] = test: Anchorage-independent cell transformation assay, EGF-induced; type: cell-based; conditions: Mus musculus, JB6 Cl41, 336 h, 10 ng/mL EGF, 14 days
Procedure: JB6 Cl41 cells (8×10^3 cells) present in 1 mL of 0.3% Basal Medium Eagle (BME) agar containing 10% FBS and magnolin in concentrations of 15 μM, 30 μM, and 60 μM, respectively, were exposed to 10 ng/mL of EGF, maintained at 37° C., and cultured in a 5% CO2 bioreactor for 14 days. Then, the number and size of the colonies were counted using an ECLIPSE Ti inverted microscope and the NIS-Elements AR (V. 4.0) computer software program (NIKON Instruments Korea, Seoul, Korea).

JB6 Cl41 cells [8] = test: Cytotoxicity of magnolin; type: cell-based, mouse; conditions: 100 μM or higher, 48 hours
Procedure: Additionally, to examine the cytotoxicity of magnolin, the cultured cells (2×10^4 cells) were aliquoted into 96-well plates containing 5% FBS-MEM and cultured overnight. Then, the cells were treated with the magnolin samples to final concentrations of 15 μM, 30 μM, 60 μM, and 100 μM respectively, prepared in the Example 5. The cells were cultured for 48 hours while measuring the absorbance at 24 hour intervals. In the experiment, the cell treated with DMSO alone was set as a control.

[9] = system: A549 cells having Ras^G12V; test: Anchorage-independent colony growth in soft agar; type: cell-based, human; conditions: 15, 30, 60 μM, 10 days
Procedure: Further, H226 cells (8×10^3 cells) having Ras-wt and A549 cells (8×10^3 cells) having Ras^G12V were cultured in 1 mL of 0.3% DMEM agar containing 10% FBS and 15 μM, 30 μM, and 60 μM of magnolin, respectively, maintained at 37° C., and cultured in a 5% CO2 bioreactor for 10 days. As the result of counting the number and size of the cell colonies using an ECLIPSE Ti inverted microscope and the NIS-Elements AR (V. 4.0) computer software program, it was observed that an anchorage-independent colony growth of A549 cells was inhibited by magnolin.

ERK1 = ERK1 (Homo sapiens, UniProt P27361); test: In vitro kinase analysis with active ERK1 and His-RSK2-328-740; type: biochemical
Procedure: (§1) A truncated RSK2 protein containing the amino acid at position 328 to the amino acid at position 740 (His-RSK-328-740) was purified using Ni-NTA agarose beads (Qiagen Korea Ltd., Seoul, Korea) (Left panel on FIG. 13A) and an in vitro-kinase analysis was performed using active ERK and His-RSK2-328-740 proteins. Specifically, in the in vitro-kinase analysis, 20 μL of the purified sample was treated with 20 ng of active ERK1 or ERK2, 100 ng of RSK2, and 100 μM of cold-ATP, and 3.75 μM, 7.5 μM, 15 μM, 30 μM, and 60 μM of magnolin, respectively. Then, the kinase reaction was performed for 30 minutes at 30° C. The reaction was stopped by adding 6×SDS-sample buffer followed by boiling. Upon termination of the reaction, the resultant was visualized by Western blot.
(§2) As the result of the computational docking, it was observed that magnolin forms hydrogen bonds with Lys168 of ERK1 (Left panel on FIG. 13B) and Met108 and Lys54 of ERK2 (Right panel on FIG. 13B), respectively. Further, it was confirmed that magnolin in the active pocket of ERK1 or ERK2 was completely different in molecular structure and binding angle. The docking scores of magnolin at the active pockets of ERK1 and ERK2 were −0.7 and −6.68, respectively. Further, to measure the IC50 value on the activity of ERK1 or ERK2, the in vitro-kinase analysis was performed.

[10] = system: ATF1 and AP-1 transactivation activities; test: ATF1 and AP-1 phosphorylation, nuclear localization and transactivation (Western blot, luciferase reporter); type: cell-based, mouse
Procedure: 1×10^6 of the cultured JB6 Cl41 cells were cultured in a cell culture dish with a diameter of 100 mm for overnight. The cells were starved and left for 24 hours, and then pretreated with magnolin at concentrations of 15 μM, 30 μM, and 60 μM of for 30 minutes, and then co-treated with […] of EGF and magnolin for 30 minutes. The proteins were extracted from the cells and visualized by Western blot.
On the other hand, the cells were co-transfected with pGAL4-ATF1-expressing plasmids and p5xGal4-luciferase reporter plasmids, and then cultured for 12 hours. The cells were pretreated with magnolin for 30 minutes, and co-treated with EGF and magnolin for 6 hours. Then, the cell culture was stopped and the activity of firefly luciferase was measured using the VIXTOR X3(PerkinElmer).

JB6 Cl41 cells [11] = test: EGF-induced cell cycle progression; type: cell-based, mouse; conditions: 60 μM or higher, 1 ng/mL EGF, 12 hours
Procedure: Then, the cells were pretreated with magnolin to final concentrations of 15 μM, 30 μM, and 60 μM, respectively, for 30 minutes. Then, under the presence of magnolin, the cells were stimulated with 1 ng/mL of EGF for 12 hours.

ERK2 [12] = biological target: T1, ERK2; test: In vitro kinase analysis with active ERK2 and His-RSK2-328-740; type: biochemical
Procedure: as §1, §2

[13] = co-treated with EGF and magnolin

T1 sequence (P28482 whole entry): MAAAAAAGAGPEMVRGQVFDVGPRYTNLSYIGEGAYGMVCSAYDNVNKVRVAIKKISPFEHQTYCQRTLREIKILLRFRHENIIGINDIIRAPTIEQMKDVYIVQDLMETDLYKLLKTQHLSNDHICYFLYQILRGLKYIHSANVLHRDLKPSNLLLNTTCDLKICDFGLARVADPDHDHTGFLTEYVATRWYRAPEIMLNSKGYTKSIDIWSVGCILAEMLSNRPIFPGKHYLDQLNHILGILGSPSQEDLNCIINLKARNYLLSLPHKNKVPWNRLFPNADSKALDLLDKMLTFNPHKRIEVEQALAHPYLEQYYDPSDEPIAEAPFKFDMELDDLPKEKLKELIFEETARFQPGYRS
ERK1, sequence (P27361 whole entry, species assumed, the tested form may be a part): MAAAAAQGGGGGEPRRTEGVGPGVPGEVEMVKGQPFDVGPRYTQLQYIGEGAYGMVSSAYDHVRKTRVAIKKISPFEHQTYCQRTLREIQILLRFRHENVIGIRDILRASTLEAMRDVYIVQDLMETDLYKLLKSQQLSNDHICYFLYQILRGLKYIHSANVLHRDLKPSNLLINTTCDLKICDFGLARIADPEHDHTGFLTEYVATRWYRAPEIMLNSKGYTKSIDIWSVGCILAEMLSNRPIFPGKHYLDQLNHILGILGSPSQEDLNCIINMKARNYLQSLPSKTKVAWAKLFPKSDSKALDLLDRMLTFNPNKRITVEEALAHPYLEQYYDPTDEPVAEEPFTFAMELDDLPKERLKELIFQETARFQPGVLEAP

SMILES: COc1cccc(-c2cc(=O)c3ccccc3o2)c1N [PD98059, reference compound]
- phosphorylation at Thr359/Ser363 of RSKs ([1]; EGF-stimulated JB6 Cl41 cells): inhibited
- ERK1/2 phosphorylation at Thr202/Tyr204 [1]: interrupts

SMILES: COc1ccc([C@H]2OC[C@H]3[C@@H]2CO[C@@H]3c2cc(OC)c(OC)c(OC)c2)cc1OC [magnolin]
- anchorage-independent growth [2]: inhibited
- inhibition of cell proliferation compared with NIH3T3 cells expressing mock [2]: more sensitive
- inhibition at 30 µM ([3]; 30 μM): ~40%
- inhibition at 60 µM ([3]; 60 μM): ~70%
- inhibition of cell proliferation in A549 cells compared with H226 cells [4]: more significantly
- ERK2 binding to ATP-agarose beads (ERK2 [5]): decreased
- distribution in G2/M cell cycle phase compared to control (JB6 Cl41 cells [6]; 30 μM and 60 μM, 12 hours): only a very small increase
- distribution in G1/G0 phase (JB6 Cl41 cells [6]; 30 μM): about 55%
- distribution in G1/G0 phase (JB6 Cl41 cells [6]; 60 μM): about 60%
- inhibition at 30 µM (JB6 Cl41 cells [7]; 30 μM): ~40%
- inhibition at 60 µM (JB6 Cl41 cells [7]; 60 μM): ~75%
- cytotoxicity (JB6 Cl41 cells [8]): no cytotoxicity was observed
- phosphorylation at Thr359/Ser363 of RSKs ([1]; EGF-stimulated JB6 Cl41 cells): interrupting phosphorylation; also recorded: inhibited
- phosphorylations of MEK, Akt, p38 kinase, and JNKs ([1]; EGF-stimulated JB6 Cl41 cells): not to be involved
- ERK1/2 phosphorylation at Thr202/Tyr204 [1]: does not interrupt the phosphorylation
- anchorage-independent colony growth of A549 cells [9]: inhibited
- inhibition of ERK1-mediated RSK2 phosphorylation at Thr359/Ser363 and Thr577 (ERK1; in vitro kinase reaction, 100 μM ATP, magnolin 3.75 to 60 μM): about 90%
- IC50 (ERK1; in vitro-kinase analysis): ~87 nM
- EGF-induced ATF1 phosphorylation at Ser63 ([10]; JB6 Cl41 cells, Western blot): inhibited
- AP-1 transactivation activity [10, 13]: inhibited
- EGF-induced c-Jun phosphorylation at Ser63 and Ser73 [10, 13]: inhibited
- nuclear phospho-c-Jun increased by EGF stimulation [10, 13]: decreased
- nuclear phospho-ATF1 protein level induced by EGF ([10]; co-treated with EGF and magnolin, Western blot and immunocytofluorescence): decreased
- ATF1 transactivation activity increased by EGF stimulation ([10]; co-treated with EGF and magnolin, luciferase reporter): inhibited
- effect of EGF on cell cycle (JB6 Cl41 cells [11]): almost completely inhibited
- IC50 (ERK2 [12]): 16.5 nM
